From the supplement of paper PMC12533247
± gives the standard deviation of the averaged measurements.

Key:
[1] = system: HSV-1 K26-GFP infected 3D skin equivalent; experiment: % activity on HSV-1 GFP signal (0 = infected DMSO control, -100 = uninfected control); higher = higher signal (negative = inhibition / toxicity); settings: time (h post infection): 48
Protocol: (§1)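 Triplicate dose-response (0.04 to 10 uM) of 11 top compounds in 3D bioprinted skin equivalents (submerged and ALI models) infected with GFP-HSV-1 K26 at MOI 0.1 and fixed at 48 hpi. GFP (virus) and tdTomato (fibroblast viability) signals are normalised to per-plate controls.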

[2] = system: HSV-1 K26-GFP infected primary human skin cells; experiment: % change of HSV-1 GFP signal vs untreated infected cells; higher = less antiviral inhibition
Protocol: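 2D primary donor-derived keratinocytes (read at 20 hpi) and donor-matched dermal fibroblasts (read at 48 hpi) infected with GFP-HSV-1 K26 at MOI 1 and treated 1 h later with compound dilutions. IncuCyte GFP integrated intensity is normalised by subtracting mock-infected wells and dividing by untreated infected wells, shown as % change (-100 = full inhibition).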

[3] = system: HSV-1 K26-GFP infected 3D skin equivalent; experiment: % change of tdTomato fibroblast signal relative to infected DMSO control; higher = higher signal (negative = inhibition / toxicity); settings: time (h post infection): 48
Protocol: as §1

[4] = system: HSV-1 K26-GFP infected primary human skin cells; experiment: % change of HSV-1 GFP signal vs untreated infected cells; higher = less antiviral inhibition; settings: cell type: primary dermal fibroblasts, time (h post infection): 48
Protocol: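 2D primary donor-derived dermal fibroblasts infected with GFP-HSV-1 K26 at MOI 1, treated 1 h later with compound dilutions and read at 48 hpi on IncuCyte. GFP integrated intensity is normalised to mock-infected and untreated infected wells (% change; -100 = full inhibition).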

O=C(/C=C\n1cnc(-c2cc(C(F)(F)F)cc(C(F)(F)F)c2)n1)NNc1ccccn1 [Verdinexor]
Settings	% activity on HSV-1 GFP signal [%]	% change of HSV-1 GFP signal [%]	% change of tdTomato fibroblast signal [%]
[1], 0.041152 µM, model: ALI	22.5 ± 12	–	–
[1], 0.041152 µM, model: submerged	-2.17 ± 3	–	–
[1], 0.123457 µM, model: ALI	-30.1 ± 23	–	–
[1], 0.123457 µM, model: submerged	-37 ± 12	–	–
[1], 0.37037 µM, model: ALI	-82.5 ± 16	–	–
[1], 0.37037 µM, model: submerged	-41.1 ± 7.8	–	–
[1], 1.111111 µM, model: ALI	-92.6 ± 9.2	–	–
[1], 1.111111 µM, model: submerged	-56.4 ± 6.4	–	–
[1], 3.33333 µM, model: ALI	-105 ± 2.9	–	–
[1], 3.33333 µM, model: submerged	-65.7 ± 3.8	–	–
[1], 10 µM, model: ALI	-108 ± 8	–	–
[1], 10 µM, model: submerged	-68.6 ± 7.5	–	–
[3], 0.041152 µM, model: ALI	–	–	8.09 ± 10
[3], 0.041152 µM, model: submerged	–	–	8.73 ± 13
[3], 0.123457 µM, model: ALI	–	–	-4.16 ± 1.6
[3], 0.123457 µM, model: submerged	–	–	-8.13 ± 10
[3], 0.37037 µM, model: ALI	–	–	-13.3 ± 5.4
[3], 0.37037 µM, model: submerged	–	–	-4.26 ± 4
[3], 1.111111 µM, model: ALI	–	–	-11.7 ± 11
[3], 1.111111 µM, model: submerged	–	–	-2.44 ± 13
[3], 3.33333 µM, model: ALI	–	–	-19.1 ± 21
[3], 3.33333 µM, model: submerged	–	–	-1.43 ± 5.2
[3], 10 µM, model: ALI	–	–	-6.29 ± 5.3
[3], 10 µM, model: submerged	–	–	-5.83 ± 20
[4], 0.001 µM, donor: 3	–	2.8 ± 12	–
[4], 0.001 µM, donor: 4	–	-3.59 ± 3.6	–
[4], 0.003 µM, donor: 3	–	3.24 ± 5.4	–
[4], 0.003 µM, donor: 4	–	-6.87 ± 5.1	–
[4], 0.0091 µM, donor: 3	–	5.63 ± 4.6	–
[4], 0.0091 µM, donor: 4	–	-5.59 ± 9.3	–
[4], 0.0274 µM, donor: 3	–	3.47 ± 1.8	–
[4], 0.0274 µM, donor: 4	–	-11.5 ± 8.2	–
[4], 0.0823 µM, donor: 3	–	-1.6 ± 11	–
[4], 0.0823 µM, donor: 4	–	-10.8 ± 5.7	–
[4], 0.2469 µM, donor: 3	–	-1.84 ± 3.6	–
[4], 0.2469 µM, donor: 4	–	-12 ± 2.1	–
[4], 0.7407 µM, donor: 3	–	-13.6 ± 4	–
[4], 0.7407 µM, donor: 4	–	-15.2 ± 4.7	–
[4], 2.2222 µM, donor: 3	–	-31.7 ± 6	–
[4], 2.2222 µM, donor: 4	–	-33.3 ± 11	–
[4], 6.6667 µM, donor: 3	–	-34.8 ± 8.4	–
[4], 6.6667 µM, donor: 4	–	-32.3 ± 15	–
[4], 20 µM, donor: 3	–	-49 ± 24	–
[4], 20 µM, donor: 4	–	-21.8 ± 2.3	–

% change of HSV-1 GFP signal [%], [2]
Settings	0.001 µM	0.003 µM	0.0091 µM	0.0274 µM	0.0823 µM	0.2469 µM	0.7407 µM	2.2222 µM	6.6667 µM	20 µM
cell type: primary dermal fibroblasts, donor: 5, time (h post infection): 48	-15.5 ± 10	-14.5 ± 7.4	-9.81 ± 1.9	-15.2 ± 7	-14.8 ± 4.2	-16.9 ± 4.9	-28.1 ± 3.1	-45.5 ± 2.2	-46.8 ± 3.4	-46.5 ± 7.1
cell type: primary keratinocytes, donor: 3, time (h post infection): 20	17.4 ± 44	18.1 ± 37	8.7 ± 34	2.9 ± 49	12.9 ± 26	9.98 ± 29	-22.6 ± 40	-68.6 ± 20	-87.6 ± 8.3	-92 ± 6
cell type: primary keratinocytes, donor: 4, time (h post infection): 20	-13.1 ± 15	-10.8 ± 7	-21.9 ± 34	-29.6 ± 21	-15.4 ± 5.8	-22.4 ± 4.3	-47.4 ± 5.1	-82.8 ± 1.5	-95.8 ± 3.9	-97.6 ± 1.9
cell type: primary keratinocytes, donor: 5, time (h post infection): 20	6.47 ± 9.6	3.84 ± 10	3.12 ± 7.2	6.11 ± 5.4	10.5 ± 14	3.84 ± 13	8.2 ± 10	-36.4 ± 28	-76.6 ± 2.2	-94.9 ± 2.6
